These results are taken from patent US20190022225A1, “PROTOCOL FOR INCREASING LIFE EXPECTANCY IN A TEST SUBJECT” (Mayo Foundation for Medical Education and Research, priority 2015, published 2019).

Each structure is given as a SMILES string.

The subject of assay [1] is 3MR or INK-ATTAC mice exposed to cigarette smoke. The assay can be described thus: Cigarette smoke exposure model (COPD), oxygen saturation. The format is in vivo, mouse. The note with it: after 2 months of cigarette smoke exposure. As to the method: Six week-old 3MR (n=35) or INK-ATTAC (n=35) mice were chronically exposed to cigarette smoke generated from a Teague TE-10 system, an automatically-controlled cigarette smoking machine that produces a combination of side-stream and mainstream cigarette smoke in a chamber, which is transported to a collecting and mixing chamber where varying amounts of air is mixed with the smoke mixture. […] Mice received a total of 6 hours of cigarette smoke exposure per day, 5 days a week for 6 months. Each lighted cigarette (3R4F research cigarettes containing 10.9 mg of total particulate matter (TPM), 9.4 mg of tar, and 0.726 mg of nicotine, and 11.9 mg carbon monoxide per cigarette [University of Kentucky, Lexington, Ky.]) was puffed for 2 seconds and once every minute for a total of 8 puffs, with the flow rate of 1.05 L/min, to provide a standard puff of 35 cm^3. The smoke machine was adjusted to produce a mixture of side stream smoke (89%) and mainstream smoke (11%) by smoldering 2 cigarettes at one time. The smoke chamber atmosphere was monitored for total suspended particulates (80-120 mg/m^3) and carbon monoxide (350 ppm). Beginning at day 7, (10) INK-ATTAC and (10) 3MR mice were treated with AP20187 (3×per week) or gancyclovir (5 consecutive days of treatment followed by 16 days off drug, repeated until the end of the experiment), respectively. An equal number of mice received the corresponding vehicle. The remaining 30 mice (15 INK-ATTAC and 15 3MR) were evenly split with 5 of each genetically modified strain placed into three different treatment groups. One group (n=10) received Nutlin-3A (25 mg/kg dissolved in 10% DMSO/3% Tween-20 in PBS, treated 14 days consecutively followed by 14 days off drug, repeated until the end of the experiment). One group (n=10) received ABT-263 (Navitoclax) (100 mg/kg dissolved in 15% DMSO/5% Tween-20, treated 7 days consecutively followed by 14 days off drug, repeated until the end of the experiment), and the last group (n=10) received only the vehicle used for ABT-263 (15% DMSO/5% Tween-20), following the same treatment regimen as ABT-263.
After two months of cigarette smoke exposure, lung function was assessed by monitoring oxygen saturation using the MouseSTAT PhysioSuite pulse oximeter (Kent Scientific). Animals were anesthetized with isoflurane (1.5%) and the toe clip was applied. Mice were monitored for 30 seconds and the average peripheral capillary oxygen saturation (SpO2) measurement over this duration was calculated.

Assay [2] concerns senescent foreskin fibroblasts (HCA2 and BJ), lung fibroblasts (IMR90). The assay is described as follows: Cell count survival assay of Nutlin-3a on irradiation-induced senescent fibroblasts. Format: cell-based, human. The note with it: 10 Gy irradiated HCA2, BJ, Nutlin-3a 0, 2.5, 10 μM for 9 days. As for the experimental part: Foreskin fibroblast cell lines HCA2 and BJ, lung fibroblast cell line IMR90, and mouse embryonic fibroblasts were seeded in six-well plates and induced to senesce with 10 Gy of ionizing radiation (IR) or a 24 hr treatment with doxorubicin (Doxo). Senescent phenotype was allowed to develop for at least 7 days, at which point a cell count was made to determine the baseline number of cells. Nutlin-3a treatment was then initiated for a period of at least 9 days. Media alone or media with drug as appropriate was refreshed at least every three days. At the end of the assay time period, cells are counted. Each condition was seeded in three plate wells and counted independently. Initial cell count serves as a control to determine the induction of senescence, as compared to the last day count without nutlin treatment. Initial non-senescent cell count serves as a proxy to determine Nutlin-3a toxicity.
Foreskin fibroblast cell lines HCA2 and BJ, lung fibroblast cell line IMR90, and mouse embryonic fibroblasts were exposed to 10 Gy of ionizing radiation (IR) to induce senescence. […] Percent survival was calculated as [cell count on day 9 of Nutlin-3a treatment/initial cell count on first day of Nutlin-3a treatment].

The test system of another assay is C57BL/6J mice. The assay can be described thus: Rotarod motor coordination in 23 month old C57BL/6J mice. The format is in vivo, mouse. As to the method: A group of 34 C57BL/6J mice were tested for motor coordination in a rotarod at 23 months of age. Mice were tested for 4 consecutive days. Each session consisted of 4 runs in which the speed of the rotating rod increased from 4 to 40 rpm over 5 minutes. Mice were allowed to run until they fell. The latency to fall was recorded for each run, and averaged to obtain a single value for each session. Half of the mice were then treated with 50 mg/kg nutlin-3a for 14 consecutive days, via IP injection, while the rest of them were sham injected. 3 weeks after the last day of treatment, motor coordination was assessed following the described procedure.
Values higher than 1 correspond to an increase in motor coordination after treatment. The average of 4 runs for each animal and the average (±SEM) for each group are shown.
The average of 4 runs is shown for each day (±SEM).

The test system of assay [3] is p21, p16, IL-1a, CXCL-1, IL-6, IL-8 expression in senescent IMR90 cells. The assay can be described thus: qPCR of senescence markers and SASP factors in irradiated senescent IMR90 cells treated with Nutlin-3a. Format: cell-based, human. As for the experimental part:
Primary human fibroblast (IMR90) cells were induced to senesce by applying 10 Gy of irradiation. Seven days after irradiation (Day 0), cells were treated with 10 μM Nutlin-3a or vehicle (DMSO) for nine days (Day 9). The drug or vehicle was refreshed every three days. Drug/vehicle was removed at Day 9 and the cells were cultured for an additional three days (Day 12) in media without drug or DMSO. Cells were then collected, mRNA extracted, and cDNA prepared. Quantitative PCR (qPCR) was then performed to detect expression of various genes. Cells were also collected at Day 12 after drug/vehicle had been removed for three days. The data are presented as an average of three samples. Data were normalized to actin and depicted as a ratio to non-senescent cells.

For assay [4], the system named is LDLR−/−/3MR double transgenic mice fed a HFD. The assay is described as follows: Atherosclerosis model, LDLR-/-/3MR double transgenic mice on HFD, ganciclovir weeks 12-13 and 14-15. As to conditions: 25 mg/kg ip; versus LDLR−/−/HFD controls. Format: in vivo, mouse. As to the method:
The study illustrated in FIG. 43B assessed the extent to which […] based clearance of senescent cells from LDLR^−/− /3MR double transgenic mice improves pre-existing atherogenic disease. LDLR^−/− MR double transgenic mice (10 weeks) and LDLR^−/− single transgenic mice (10 weeks) are fed a high fat diet beginning at Week 0 until Week 12. Gancyclovir is administered to both groups of mice (25 mg/kg intraperitoneally) from weeks 12-13 and weeks 14-15. At week 16, the level of plaque and the number of senescent cells in the plaques are determined.

For the compound `COc1ccc(C2=N[C@@H](c3ccc(Cl)cc3)[C@@H](c3ccc(Cl)cc3)N2C(=O)N2CCNC(=O)C2)c(OC(C)C)c1` [Nutlin-3a], the “SpO2 levels versus untreated controls” value in assay [1] is on record as “statistically significant increases”. The “cell survival of senescent fibroblasts (percent survival)” value in assay [2] is listed as “reduced cell survival”. Also, in the assay with C57BL/6J mice (50 mg/kg IP 14 days, after three days of training, p<0.05), the “rotarod performance (latency to fall)” value is on record as “increased rotarod performance”. In addition, the “ratio of latency to fall, fourth session after treatment / fourth baseline session” value in the assay on C57BL/6J mice (p<0.01) is “higher average ratio”. Moreover, the “rotarod performance over the training period” value in the assay with C57BL/6J mice (p<0.01, 2-way ANOVA) is “better performance”. Further, the “level of p21 mRNA, ratio to non-senescent cells” value in assay [3] (10 μM, day 9) is given as “approximately 90 fold”. Further, in assay [3] (10 μM, day 9 and day 12), the “level of IL-1a mRNA” value is given as “decreased only after Nutlin-3a had been removed”; the “levels of CXCL-1, IL-6 and IL-8 mRNA” value was “reduced when Nutlin-3a was present and remained lower after drug removal”. For the same compound, the “level of p16 mRNA” value in assay [3] (10 μM, drug present (day 9)) is recorded as “did not change”. For the same compound, the “level of p16 mRNA” value in assay [3] (day 12, three days after drug removal) is “decrease”.

Regarding `Nc1nc(O)c2ncn(COC(CO)CO)c2n1` [ganciclovir], the “SpO2 levels versus untreated controls” value in assay [1] is recorded as “statistically significant increases”. Also, in assay [4], the “% of the aorta covered with plaque” value is reported as “reduces the % of the aorta covered with plaque” and the plaque cross-sectional area entry is “reduced the plaque cross-sectional area”.
